Test results from patent US12077503B2, “Substituted cyclic amides and their use as herbicides” (FMC CORPORATION, priority 2015, dated 2024).
Read-outs that look alike come from different tables or passages of the source.

Key:
Assay type in all cases: in vivo
Kochia (Kochia scoparia) = assay: Test A preemergence; details: Bassia scoparia, pre-emergence, 240 h; for pest or weed control at 125 g/ha: 125 g ai/ha; for pest or weed control at 500 g/ha: 500 g ai/ha
Outline: (§1)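 In a loam soil and sand blend, planted seeds got a preemergence directed soil spray, and young plants at the one- to two-leaf stage, 2–10 cm high, got a postemergence application; ~10 d greenhouse hold; injury rated visually, 0 = none, 100 = complete control.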

[1] = test system: barnyardgrass (Echinochloa crus-galli); assay: Test A preemergence; details: Echinochloa crus-galli, pre-emergence, 240 h; for pest or weed control at 125 g/ha: 125 g ai/ha; for pest or weed control at 500 g/ha: 500 g ai/ha
Outline: as §1

[2] = test system: giant foxtail (Setaria faberii); assay: Test A preemergence; details: Setaria faberi, pre-emergence, 240 h; for pest or weed control at 125 g/ha: 125 g ai/ha; for pest or weed control at 500 g/ha: 500 g ai/ha
Outline: as §1

[3] = test system: pigweed (Amaranthus retroflexus); assay: Test A preemergence; details: Amaranthus retroflexus, pre-emergence, 240 h; for pest or weed control at 125 g/ha: 125 g ai/ha; for pest or weed control at 500 g/ha: 500 g ai/ha
[4] = test system: ryegrass, Italian (Italian ryegrass, Lolium multiflorum); assay: Test A preemergence; details: Lolium multiflorum, pre-emergence, 240 h; for pest or weed control at 125 g/ha: 125 g ai/ha; for pest or weed control at 500 g/ha: 500 g ai/ha
Outline: as §1

[5] = test system: Galium (catchweed bedstraw, Galium aparine); assay: Test C preemergence; details: for Plant response rating, Galium: scale 0 to 100, 0 no effect, 100 complete control
Outline: (§2)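 Visual rating, 0–100 scale (0 = no effect, 100 = complete control) versus controls, 13–15 d after treatment. Compounds in non-phytotoxic solvent plus surfactant; applied preemergence to seeds in loam/sand soil or postemergence to 1- to 4-leaf plants (2–18 cm) in peat/vermiculite medium; greenhouse-held.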

[6] = test system: crabgrass, large (large crabgrass, Digitaria sanguinalis); assay: Test C preemergence; details: for Plant response rating, Crabgrass, Large: scale 0 to 100, 0 no effect, 100 complete control
Outline: as §2

[7] = test system: foxtail, giant (giant foxtail, Setaria faberii); assay: Test C preemergence; details: for Plant response rating, Foxtail, Giant: scale 0 to 100, 0 no effect, 100 complete control
Outline: as §2

[8] = test system: johnsongrass (Sorghum halepense); assay: Test C preemergence; details: for Plant response rating, Johnsongrass: scale 0 to 100, 0 no effect, 100 complete control
Outline: as §2

[9] = test system: lambsquarters (Chenopodium album); assay: Test C preemergence; details: for Plant response rating, Lambsquarters: scale 0 to 100, 0 no effect, 100 complete control
Outline: as §2

[10] = test system: nutsedge, yellow (yellow nutsedge, Cyperus esculentus); assay: Test C preemergence; details: for Plant response rating, Nutsedge, Yellow: scale 0 to 100, 0 no effect, 100 complete control
Outline: as §2

[11] = test system: oilseed rape (Brassica napus); assay: Test C preemergence; details: for Plant response rating, Oilseed Rape: scale 0 to 100, 0 no effect, 100 complete control
Outline: as §2

soybean (Glycine max) = assay: Test C preemergence; details: for Plant response rating, Soybean: scale 0 to 100, 0 no effect, 100 complete control
Outline: as §2

[12] = test system: velvetleaf (Abutilon theophrasti); assay: Test C preemergence; details: for Plant response rating, Velvetleaf: scale 0 to 100, 0 no effect, 100 complete control
Outline: as §2

[13] = test system: waterhemp (common waterhemp, Amaranthus rudis); assay: Test C preemergence; details: for Plant response rating, Waterhemp: scale 0 to 100, 0 no effect, 100 complete control
Outline: as §2

[14] = 31 g ai/ha, 0 is no effect, 100 is complete control

CN1C[C@H](c2ccc(F)c(F)c2)[C@@H](C(=O)Nc2cccc(F)c2F)C1=O [Compound 639, (3S,4S)—N-(2,3-difluorophenyl)-4-(3,4-difluorophenyl)-1-methyl-2-oxo-3-pyrrolidinecarboxamide]
pest or weed control at 125 g/ha (Kochia (Kochia scoparia); Preemergence, visual injury after approximately 10 d, 0 to 100 scale where 0 is no effect and 100 is complete control, read-out: Plant response rating, Kochia): 70% | pest or weed control at 500 g/ha (Kochia (Kochia scoparia); preemergence, 0 to 100 scale, 0 = no effect, 100 = complete control, read-out: Plant response rating, Kochia): 80% | pest or weed control at 125 g/ha ([1]; Preemergence, visual injury after approximately 10 d, 0 to 100 scale where 0 is no effect and 100 is complete control, read-out: Plant response rating, Barnyardgrass): 90% | pest or weed control at 500 g/ha ([1]; preemergence, 0 to 100 scale, 0 = no effect, 100 = complete control, read-out: Plant response rating, Barnyardgrass): 90% | pest or weed control at 125 g/ha ([2]; Preemergence, visual injury after approximately 10 d, 0 to 100 scale where 0 is no effect and 100 is complete control, read-out: Plant response rating, Foxtail, Giant): 90% | pest or weed control at 500 g/ha ([2]; preemergence, 0 to 100 scale, 0 = no effect, 100 = complete control, read-out: Plant response rating, Foxtail, Giant): 100% | pest or weed control at 125 g/ha ([3]; Preemergence, visual injury after approximately 10 d, 0 to 100 scale where 0 is no effect and 100 is complete control, read-out: Plant response rating, Pigweed): 50% | pest or weed control at 500 g/ha ([3]; preemergence, 0 to 100 scale, 0 = no effect, 100 = complete control, read-out: Plant response rating, Pigweed): 80% | pest or weed control at 125 g/ha ([4]; Preemergence, visual injury after approximately 10 d, 0 to 100 scale where 0 is no effect and 100 is complete control, read-out: Plant response rating, Ryegrass, Italian): 60% | pest or weed control at 500 g/ha ([4]; preemergence, 0 to 100 scale, 0 = no effect, 100 = complete control, read-out: Plant response rating, Ryegrass, Italian): 90% | Plant response rating (scale of 0 to 100), Galium [5, 14]: 85 | Plant response rating, Galium ([5]; 62 g ai/ha): 80 | Plant response rating, Galium ([5]; 125 g ai/ha): 85 | Plant response rating, Galium ([5]; 250 g ai/ha): 95 | Plant response rating (scale of 0 to 100), Crabgrass, Large [6, 14]: 98 | Plant response rating, Crabgrass, Large ([6]; 62 g ai/ha): 98 | Plant response rating, Crabgrass, Large ([6]; 125 g ai/ha): 100 | Plant response rating, Crabgrass, Large ([6]; 250 g ai/ha): 100 | Plant response rating (scale of 0 to 100), Foxtail, Giant [7, 14]: 90 | Plant response rating, Foxtail, Giant ([7]; 62 g ai/ha): 90 | Plant response rating, Foxtail, Giant ([7]; 125 g ai/ha): 95 | Plant response rating, Foxtail, Giant ([7]; 250 g ai/ha): 100 | Plant response rating (scale of 0 to 100), Johnsongrass [8, 14]: 20 | Plant response rating, Johnsongrass ([8]; 62 g ai/ha): 65 | Plant response rating, Johnsongrass ([8]; 125 g ai/ha): 80 | Plant response rating, Johnsongrass ([8]; 250 g ai/ha): 90 | Plant response rating (scale of 0 to 100), Lambsquarters [9, 14]: 20 | Plant response rating, Lambsquarters ([9]; 62 g ai/ha): 25 | Plant response rating, Lambsquarters ([9]; 125 g ai/ha): 40 | Plant response rating, Lambsquarters ([9]; 250 g ai/ha): 70 | Plant response rating (scale of 0 to 100), Nutsedge, Yellow [10, 14]: 0 | Plant response rating, Nutsedge, Yellow ([10]; 62 g ai/ha): 0 | Plant response rating, Nutsedge, Yellow ([10]; 125 g ai/ha): 0 | Plant response rating, Nutsedge, Yellow ([10]; 250 g ai/ha): 20 | Plant response rating (scale of 0 to 100), Oilseed Rape [11, 14]: 0 | Plant response rating, Oilseed Rape ([11]; 62 g ai/ha): 60 | Plant response rating, Oilseed Rape ([11]; 125 g ai/ha): 85 | Plant response rating, Oilseed Rape ([11]; 250 g ai/ha): 90 | Plant response rating (scale of 0 to 100), Soybean (soybean (Glycine max); [14]): 0 | Plant response rating, Soybean (soybean (Glycine max); 62 g ai/ha): 0 | Plant response rating, Soybean (soybean (Glycine max); 125 g ai/ha): 10 | Plant response rating, Soybean (soybean (Glycine max); 250 g ai/ha): 20 | Plant response rating (scale of 0 to 100), Velvetleaf [12, 14]: 0 | Plant response rating, Velvetleaf ([12]; 62 g ai/ha): 30 | Plant response rating, Velvetleaf ([12]; 125 g ai/ha): 65 | Plant response rating, Velvetleaf ([12]; 250 g ai/ha): 55 | Plant response rating (scale of 0 to 100), Waterhemp [13, 14]: 50 | Plant response rating, Waterhemp ([13]; 62 g ai/ha): 65 | Plant response rating, Waterhemp ([13]; 125 g ai/ha): 75 | Plant response rating, Waterhemp ([13]; 250 g ai/ha): 80

CN1C[C@H](c2ccc(C#N)cc2)[C@@H](C(=O)Nc2cccc(F)c2F)C1=O [Compound 1208]
pest or weed control at 125 g/ha (Kochia (Kochia scoparia); preemergence, visual injury rating, 0 to 100 scale where 0 is no effect and 100 is complete control, approximately 10 d, read-out: Kochia plant response rating): 70% | pest or weed control at 500 g/ha (Kochia (Kochia scoparia); preemergence, 0 to 100 scale where 0 is no effect and 100 is complete control, read-out: Kochia plant response rating): 100% | pest or weed control at 125 g/ha ([1]; preemergence, visual injury rating, 0 to 100 scale where 0 is no effect and 100 is complete control, approximately 10 d, read-out: Barnyardgrass plant response rating): 90% | pest or weed control at 500 g/ha ([1]; preemergence, 0 to 100 scale where 0 is no effect and 100 is complete control, read-out: Barnyardgrass plant response rating): 100% | pest or weed control at 125 g/ha ([2]; preemergence, visual injury rating, 0 to 100 scale where 0 is no effect and 100 is complete control, approximately 10 d, read-out: Foxtail, Giant plant response rating): 100% | pest or weed control at 500 g/ha ([2]; preemergence, 0 to 100 scale where 0 is no effect and 100 is complete control, read-out: Foxtail, Giant plant response rating): 100% | pest or weed control at 125 g/ha ([3]; preemergence, visual injury rating, 0 to 100 scale where 0 is no effect and 100 is complete control, approximately 10 d, read-out: Pigweed plant response rating): 60% | pest or weed control at 500 g/ha ([3]; preemergence, 0 to 100 scale where 0 is no effect and 100 is complete control, read-out: Pigweed plant response rating): 90% | pest or weed control at 125 g/ha ([4]; preemergence, visual injury rating, 0 to 100 scale where 0 is no effect and 100 is complete control, approximately 10 d, read-out: Ryegrass, Italian plant response rating): 20% | pest or weed control at 500 g/ha ([4]; preemergence, 0 to 100 scale where 0 is no effect and 100 is complete control, read-out: Ryegrass, Italian plant response rating): 70%
